Assay results as given in US20260055108A1, “TRIAZINE COMPOUNDS AND USES THEREOF” (HUTCHMED LIMITED, priority 2022, published 2026).
Where a name gives a salt, the structure may show the parent alone. Read-outs that look alike come from different tables or passages of the source.

Columns and labels:
[1] = target: Recombinant human Menin protein (2-610) / MLL polypeptide binding (Homo sapiens (Human), UniProt O00255); assay: Menin and MLL protein binding at a molecular level (fluorescence polarization method); settings: inhibition of Menin / MLL polypeptide binding
From the text: Example 3: Determination of the Activity of the Compounds of the Present Invention on Menin and MLL Protein Binding at a Molecular Level (Fluorescence Polarization Method)
1. Reagents, Materials and Instruments:
• Recombinant human Menin protein (2-610): ChemPartner, CP2021020801; • MLL polypeptide (6-FAM-Ahx-SG-40): GL Biochem, 865700; • Trizma® hydrochloride buffer solution (Tris): Sigma, T2194-1 L; • NaCl: Invitrogen, AM9760G; • TCEP: Sigma, 646547; • DMSO: Sigma, D4540; • 384-well plate: Corning, 4514; • Envision: PerkinElmer.
2. Preparation of Reaction Solutions
• 1) Buffer solution: 20 mL of Tris and 4 mL of NaCl were added respectively to 376 mL of ddH2O, with pH adjusted to 7.5, and TCEP was added before testing with a dilution ratio of 1:500. • 2) 5× test compounds: the test compound was subjected to gradient dilution with the buffer solution to 5-fold the reaction concentration, so that the final concentrations of the compound were 1.000, 0.333, 0.111, 0.037, 0.012, 0.004, 0.001 and 0.0005 μM, respectively. • 3) 2.5× Menin protein reaction solution: the Menin protein was diluted to 5 nM with the buffer solution. • 4) 2.5×MLL polypeptide reaction solution: the MLL polypeptide was diluted to 5 nM with the buffer solution.
1) Binding Reaction (20 μL System)
4 μL of 5× test compound was added to each reaction well of the 384-well plate, and the corresponding volume of 10% DMSO was added to the control wells. Except the control wells, 8 μL of Menin protein reaction solution was added to each well. The reaction solution was incubated at room temperature for 30 minutes, and then 8 μL of MLL polypeptide reaction solution was added to each well. The final concentrations of DMSO in the test compound wells and control wells were all 2%. The 384-well plate was sealed and incubated at room temperature for 30 minutes in the dark.
Three control groups were set up: • a blank control group only containing a buffer solution; • a negative control group only containing MLL polypeptide reaction solution; and • a positive control group containing Menin protein reaction solution and MLL polypeptide reaction solution.
The vertical polarization S value and the horizontal polarization P value (excitation wavelength was 480 nm, and emission wavelength was 535 nm) were measured with Envision.
Corrected S is the S value of the negative control group—the S value of the blank control group
Corrected P is the P value of the negative control group—the P value of the blank control group
(§1) • calculated by using software XL-Fit™ (version 5.3) supplied by ID Business Solutions (Guildford, UK), which is an additional software to Microsoft Excel.

[2] = system: MV-4-11 cells (human acute myelogenous leukemia cell line carrying MLL-AF4 mutation); assay: Cell proliferation assay, MV-4-11 (CellTiter-Glo); type: cell-based; settings: Homo sapiens, MV4-11, 72 h
Experimental: Example 4 Cell Proliferation Assay
MV-4-11 (ATCC, CRL-9591), a human acute myelogenous leukemia cell line carrying MLL-AF4 mutation. Cells were cultured in an IMDM medium containing 10% heat-inactivated fetal bovine serum (HIFBS) and supplemented with 50 μM β-mercaptoethanol.
2. Reagents, Materials and Instruments:
• IMDM culture solution: GIBCO, 12440-053; • HIFBS: GIBCO, 10100-147; • β-mercaptoethanol: Sigma, M3148; • CellTiter-Glo® 2.0 assay kit (CTG): Promega, G9243; • DMSO: Sigma, D4540; • 96-well cell culture plate: Corning, 3903; • Envision: PerkinElmer.
MV-4-11 cells were resuspended in a medium, added to a 96-well plate at a density of 3000 cells/well with a volume of 100 μL/well, and cultured in a cell incubator at 5% CO2 and 37° C. for 4 hours. The test compound subjected to gradient dilution with the medium was added to a cell culture plate, and the final concentrations of the compound were 1.100, 0.367, 0.122, 0.041, 0.014, 0.005, 0.002 and 0.001 μM, respectively. The corresponding volume of DMSO diluent was added to a blank control well, and the final concentrations of DMSO in the experimental group and control group were both 0.1%. The cell plate was placed in a cell incubator at 5% CO2 and 37° C. and cultured for 3 days.
On day 0 and day 3 of the treatment, 50 μL/well CTG reagent was added to the cell plate and shaken at room temperature in the dark for 10 min, and then the chemiluminescence value of each well was measured with Envision.
[formula] • wherein: • luminescence valuetest sample: the chemiluminescence value of a cell well treated with the test compound for 3 days. • luminescence valueday 0: the chemiluminescence value of a cell well at day 0. • luminescence valuecell well: the chemiluminescence value of a cell well not treated with the compound for 3 days.
as §1

[3] = MV-4-11 cells, 3 days treatment, CellTiter-Glo, read-out: GI50

Recombinant human Menin protein (2-610) / MLL polypeptide binding, sequence (O00255 2-610): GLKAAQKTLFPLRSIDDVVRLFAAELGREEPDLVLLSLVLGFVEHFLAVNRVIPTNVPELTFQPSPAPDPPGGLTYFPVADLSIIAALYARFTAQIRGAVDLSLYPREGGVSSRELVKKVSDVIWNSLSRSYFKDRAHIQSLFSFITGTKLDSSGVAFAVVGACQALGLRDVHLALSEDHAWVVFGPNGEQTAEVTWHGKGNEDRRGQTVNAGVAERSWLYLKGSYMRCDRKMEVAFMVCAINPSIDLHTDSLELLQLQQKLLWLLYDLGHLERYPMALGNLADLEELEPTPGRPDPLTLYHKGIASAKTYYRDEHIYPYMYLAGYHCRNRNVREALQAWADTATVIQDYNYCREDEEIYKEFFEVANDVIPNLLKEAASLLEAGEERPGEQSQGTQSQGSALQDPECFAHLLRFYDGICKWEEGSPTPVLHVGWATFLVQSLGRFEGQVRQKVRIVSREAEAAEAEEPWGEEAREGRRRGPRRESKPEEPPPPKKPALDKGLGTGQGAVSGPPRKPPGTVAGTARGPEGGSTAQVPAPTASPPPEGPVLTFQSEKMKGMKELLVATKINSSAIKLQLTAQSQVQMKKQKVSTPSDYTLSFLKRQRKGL

Structure (SMILES) | IC50 [1] | GI50 [2, 3] | GI50 [2]
CCN(C(=O)c1cc(F)ccc1Oc1nncnc1N1CC2(CCN(CC3CCC(c4ccccn4)CC3)CC2)C1)C(C)C (stereo not drawn) [Compound 135, N-ethyl-5-fluoro-N-isopropyl-2-((5-(7-((4-(pyridin-2-yl)cyclohexyl)methyl)-2,7-diazaspiro[3.5]nonan-2-yl)-1,2,4-triazin-6-yl)oxy)benzamide] | 55.5 nM | 22 nM | 
CCN(C(=O)c1cc(F)ccc1Oc1nncnc1N1CC2(CCN(CC3CCN(C(=O)NC4CCC4)CC3)CC2)C1)C(C)C [Compound 32] | 1 nM | 4 nM | 
CCN(C(=O)c1cc(F)ccc1Oc1nncnc1N1CC2(CCN(CC3CCN(C(=O)NCc4ccccc4)CC3)CC2)C1)C(C)C [Compound 34] | 8.1 nM | 24 nM | 
CCOc1cc(N2CCC(CN3CCC4(CC3)CN(c3ncnnc3Oc3ccc(F)cc3C(=O)N(CC)C(C)C)C4)CC2)nnc1OCC [Compound 95] | 3.2 nM | 9 nM | 
CCN(C(=O)c1cc(F)ccc1Oc1nncnc1N1CC2(CCN(CC3CCN(c4cnnc(OC)c4)CC3)CC2)C1)C(C)C [Compound 109] | 7.4 nM | 6 nM | 
CCN(C(=O)c1cc(F)ccc1Oc1nncnc1N1CC2(CCN(Cc3cnc4c(c3)OC[C@H](c3ccc(OC)nc3)O4)CC2)C1)C(C)C [Compound 73] | > 1000 nM | 1270 nM | 
CCN(C(=O)c1cc(F)ccc1Oc1nncnc1N1CC2(CCN(CC3CCN(c4ccc(C)nn4)CC3)CC2)C1)C(C)C [Compound 84] | 0.9 nM | 2 nM | 
CCN(C(=O)c1cc(F)ccc1Oc1nncnc1N1CC2(CCN(CC3CCN(CC(O)C(N)=O)CC3)CC2)C1)C(C)C (stereo not drawn) [Compound 147, 2-((5-(7-((1-(3-amino-2-hydroxy-3-oxopropyl)piperidin-4-yl)methyl)-2,7-diazaspiro[3.5]nonan-2-yl)-1,2,4-triazin-6-yl)oxy)-N-ethyl-5-fluoro-N-isopropylbenzamide] | 116 nM | 1390 nM | 
CCN(C(=O)c1cc(F)ccc1Oc1nncnc1N1CC2(CCN(Cc3ccc4c(cc(C(=O)NC)n4CCO)c3C)CC2)C1)C(C)C [Compound 152, 5-((2-(6-(2-(ethyl(isopropyl)carbamoyl)-4-fluorophenoxy)-1,2,4-triazin-5-yl)-2,7-diazaspiro[3.5]nonan-7-yl)methyl)-1-(2-hydroxyethyl)-N,4-dimethyl-1H-indole-2-carboxamide] | 357 nM | 369 nM | 
CCN(C(=O)c1cc(F)ccc1Oc1nncnc1N1CC2(CCN(Cc3ccc4oc(C#N)cc4c3)CC2)C1)C(C)C [Compound 69] | 8.5 nM | 16 nM | 
CCN(C(=O)c1cc(F)ccc1Oc1nncnc1N1CC2(CCN(CC3CCN(c4ccc(C(N)=O)cn4)CC3)CC2)C1)C(C)C [Compound 149, 6-(4-((2-(6-(2-(ethyl(isopropyl)carbamoyl)-4-fluorophenoxy)-1,2,4-triazin-5-yl)-2,7-diazaspiro[3.5]nonan-7-yl)methyl)piperidin-1-yl)nicotinamide formate] | 2.9 nM |  | 6 nM
CCN(C(=O)c1cc(F)ccc1Oc1nncnc1N1CC2(CCN(Cc3ccc4c(cc(C(N)=O)n4CCO)c3C)CC2)C1)C(C)C [Compound 158] | 212 nM | 131 nM | 
CCN(C(=O)c1cc(F)ccc1Oc1nncnc1N1CC2(CCN(CC3CCC(n4ccccc4=O)CC3)CC2)C1)C(C)C (stereo not drawn) [Compound 122] | > 200 nM | 119 nM | 
CCN(C(=O)c1cc(F)ccc1Oc1nncnc1N1CC2(CCN(Cc3ccc4[nH]ccc4c3)CC2)C1)C(C)C [Compound 62] | 324 nM | 193 nM | 
CCN(C(=O)c1cc(F)ccc1Oc1nncnc1N1CC2(CCN(CC3CCN(C(=O)C4CCC4)CC3)CC2)C1)C(C)C [Compound 3] | 2.4 nM | 31 nM | 
C=CC(=O)N1CCC(c2ccc(CN3CCC4(CC3)CN(c3ncnnc3Oc3ccc(F)cc3C(=O)N(CC)C(C)C)C4)cc2)CC1 [Compound 182] | > 1000 nM | 430 nM | 
CCN(C(=O)c1cc(F)ccc1Oc1nncnc1N1CC2(CCN(Cc3cnc(OC)c(Cl)c3C)CC2)C1)C(C)C [Compound 60] | 574 nM | 693 nM | 
CCN(C(=O)c1cc(F)ccc1Oc1nncnc1N1CC(C2(N(C)Cc3ccc4[nH]c(C#N)cc4c3C)CC2)C1)C(C)C [Compound 139, 2-((5-(3-(1-(((2-cyano-4-methyl-1H-indol-5-yl)methyl)(methyl)amino)cyclopropyl)azetidin-1-yl)-1,2,4-triazin-6-yl)oxy)-N-ethyl-5-fluoro-N-isopropylbenzamide] | 6.1 nM | 23 nM | 
CCN(C(=O)c1cc(F)ccc1Oc1nncnc1N1CC2(CCN(CC3CCN(c4ccnc(C(C)(C)O)c4)CC3)CC2)C1)C(C)C [Compound 120] | 15.2 nM | 36 nM | 
CCN(C(=O)c1cc(F)ccc1Oc1nncnc1N1CC2(CCN(CC3(NCCOC)CC3)CC2)C1)C(C)C [Compound 53] | 99 nM | 87 nM | 
CCN(C(=O)c1cc(F)ccc1Oc1nncnc1N1CC2(CCN(CC3CCN(c4ccnc(C(N)=O)c4)CC3)CC2)C1)C(C)C [Compound 151] | 1.5 nM | 3 nM | 
N#Cc1ccc(N2CCC(CN3CCC4(CC3)CN(c3ncnnc3Oc3ccc(F)cc3C3=CCOCC3)C4)CC2)nc1 [Compound 117] | 175 nM | 255 nM | 
COc1cc(F)ccc1Oc1nncnc1N1CC2(CCN(Cc3ccc4c(cc(C#N)n4CCO)c3C)CC2)C1 [Compound 157] | 305 nM | 252 nM | 
CCN(C(=O)c1cc(F)ccc1Oc1nncnc1N1CC2(CCN(CC3CCN(c4ccc(C#N)cn4)CC3)CC2)C1)C1CC1 [Compound 116] | 53.5 nM | 70 nM | 
CCN(C(=O)c1cc(F)ccc1Oc1nncnc1N1CC2(CCN(CC3CCN(c4ccc(OC)cn4)CC3)CC2)C1)C(C)C [Compound 112] | 5.9 nM | 5 nM | 
CCN(C(=O)c1cc(F)ccc1Oc1nncnc1N1CC2(CCN(CC3CCN(c4cnc(C#N)cn4)CC3)CC2)C1)C(C)C [Compound 49] | 18.5 nM | 24 nM | 
CCN(C(=O)c1cc(F)ccc1Oc1nncnc1N1CC2(CCN(CC3CCN(C(=O)Nc4ccccn4)CC3)CC2)C1)C(C)C [Compound 37] | 13.7 nM | 23 nM | 
CCN(C(=O)c1cc(F)ccc1Oc1nncnc1N1CC2(CCN(CC3CCN(c4ccc(C#N)nn4)CC3)CC2)C1)C(C)C [Compound 47] | 2.6 nM | 3 nM | 
CCN(C(=O)c1cc(F)ccc1Oc1nncnc1N1CC2(CCN(CC3CCN(C(=O)N(C)C)CC3)CC2)C1)C(C)C [Compound 24] | 23 nM | 54 nM | 
CCN(C(=O)c1cc(F)ccc1Oc1nncnc1N1CC2(CCC(CN3CCN(c4ccccn4)CC3)CC2)C1)C(C)C [Compound 173, N-ethyl-5-fluoro-N-isopropyl-2-((5-(7-((4-(pyridin-2-yl)piperazin-1-yl)methyl)-2-azaspiro[3.5]nonan-2-yl)-1,2,4-triazin-6-yl)oxy)benzamide] | 750 nM |  | 292 nM
